Measurements as given in patent publication US7273856B2, “Linear basic compounds having NK-2 antagonist activity and formulations thereof” (Menarini Ricerche S.P.A., priority 2001, dated 2007).
Counter-ions that a name gives are not always drawn.

Target: T1, human NK-2 receptor (Homo sapiens, UniProt P21452)
T1 construct: expressed in transfected cells; host or cells: CHO (Chinese hamster ovary) cells, membranes
T1 sequence (P21452 1-398): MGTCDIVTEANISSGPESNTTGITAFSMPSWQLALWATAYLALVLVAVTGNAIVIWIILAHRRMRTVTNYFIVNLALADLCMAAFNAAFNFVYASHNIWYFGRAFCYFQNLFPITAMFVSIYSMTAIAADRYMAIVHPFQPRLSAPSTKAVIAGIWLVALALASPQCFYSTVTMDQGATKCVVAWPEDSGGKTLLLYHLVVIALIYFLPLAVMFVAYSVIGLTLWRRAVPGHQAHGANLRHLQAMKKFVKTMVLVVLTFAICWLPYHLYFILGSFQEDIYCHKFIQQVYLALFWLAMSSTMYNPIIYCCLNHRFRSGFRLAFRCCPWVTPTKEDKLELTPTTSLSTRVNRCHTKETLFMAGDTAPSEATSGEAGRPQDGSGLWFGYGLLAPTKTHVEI
Assay: binding test, affinity for the human NK-2 receptor, competition with [125I]NKA on transfected CHO cell membranes
Details: CHO cell membranes transfected with NK-2 receptor of human ileum; [125I]NKA 100 pM; 30 min, 20° C.
Method: The evaluation of the antagonist activity on NK-2 receptors has been assessed by binding and functional tests according to that already described in literature in relation to NK-2 antagonists.
The test substances have been tested within a concentration range from 0.01 nM to 10 nM. At the end of the incubation time (30 min, 20° C.) the samples have been filtered and radioactivity has been determined using a gamma-counter.

With N#CCN1CCN(C(=O)CCNC(=O)[C@@H](Cc2ccccc2)NC(=O)C2(NC(=O)c3cc4ccccc4s3)CCCC2)CC1 [Example 65, Benzo[b]thiophene-2-carboxylic acid (1-{1(R)-[3-(4-cyanomethyl-piperazin-1-yl)-3-oxo-propylcarbamoyl]-2-phenyl-ethylcarbamoyl}-cyclopentyl)-amide] the Ki was 1 nM.

O=C(NC1(C(=O)N[C@H](Cc2ccccc2)C(=O)NC2CCN(CCC3CCOCC3)CC2)CCCC1)c1cc2ccccc2s1 [Example 68, Benzo[b]thiophene-2-carboxylic acid [1-(2-phenyl-1(R)-{1-[2-(tetrahydro-pyran-4-yl)-ethyl]-piperidin-4-ylcarbamoyl}-ethylcarbamoyl)-cyclopentyl]-amide TFA salt] was tested, and the Ki was 1.26 nM.

CC(C)N1CCC(CNC(=O)[C@@H](Cc2ccccc2)NC(=O)C2(NC(=O)c3cc4ccccc4s3)CCCC2)CC1 [Example 70, Benzo[b]thiophene-2-carboxylic acid (1-{1-(R)-[(1-isopropyl-piperidin-4-ylmethyl)-carbamoyl]-2-phenyl-ethylcarbamoyl}-cyclopentyl)-amide] gave a Ki of 1.58 nM.

O=C(NC1(C(=O)N[C@H](Cc2ccccc2)C(=O)NCC2CCN(CC3CCOCC3)CC2)CCCC1)c1ccc2cc(Br)ccc2c1 [Example 72, 6-Bromo-naphthalene-2-carboxylic acid [1-(2-phenyl-1(R)-{[-(tetrahydro-pyran-4-ylmethyl)-piperidin-4-ylmethyl]-carbamoyl}-ethylcarbamoyl)-cyclopentyl]-amide] was tested, and the pKi was 10.0.

CCN1CCC(CNC(=O)[C@@H](Cc2ccccc2)NC(=O)C2(NC(=O)c3ccc4cc(Br)ccc4c3)CCCC2)CC1 [Example 76, 6-Bromo-naphthalene-2-carboxylic acid (1-{1(R)-[(1-ethyl-piperidin-4-ylmethyl)-carbamoyl]-2-phenyl-ethylcarbamoyl}-cyclopentyl)-amide] was tested, and the Ki was 1 nM.

Work on O=C(NC1(C(=O)N[C@H](Cc2ccccc2)C(=O)NCC2CCN(CCC3CCOCC3)CC2)CCCC1)c1cc2ccccc2s1 [Example 78, Benzo[b]thiophene-2-carboxylic acid {1-[2-phenyl-1(R)-({1-[2-(tetrahydro-pyran-4-yl)-ethyl]-piperidin-4-ylmethyl}-carbamoyl)-ethylcarbamoyl]-cyclopentyl}-amide] yielded a Ki of 1 nM.

In the case of O=C(NC1(C(=O)N[C@H](Cc2ccccc2)C(=O)NCC2CCN(CC3CCCCC3)CC2)CCCC1)c1cc2ccccc2s1 [Example 79, Benzo[b]thiophene-2-carboxylic acid (1-{1(R)-[(1-cyclohexylmethyl-piperidin-4 ylmethyl)-carbamoyl]-2-phenyl-ethylcarbamoyl}-cyclopentyl)-amide], the Ki is reported as 0.0631 nM.

O=C(NC1(C(=O)N[C@H](Cc2ccccc2)C(=O)NCC2CCN(C3CCOCC3)CC2)CCCC1)c1ccc2cc(Br)ccc2c1 [Example 80, 6-Bromo-naphthalene-2-carboxylic acid [1-(2-phenyl-1(R)-{[1-(tetrahydro-pyran-4-yl)-piperidin-4-ylmethyl]-carbamoyl}-ethylcarbamoyl)-cyclopentyl]-amide] was tested, and the Ki was 0.251 nM.

O=C(NC1(C(=O)N[C@H](Cc2ccccc2)C(=O)NCC2CCN(C3CCSCC3)CC2)CCCC1)c1cc2ccccc2s1 [Example 81, Benzo[b]thiophene-2-carboxylic acid [1-(2-phenyl-1(R)-{[1-(tetrahydro-thiopyran-4-yl)-piperidin-4-ylmethyl]-carbamoyl}-ethylcarbamoyl)-cyclopentyl]-amide TFA salt] showed a Ki of 0.0794 nM.

With O=C(NC1(C(=O)N[C@H](Cc2ccccc2)C(=O)NCC2CCN(CC3CCSCC3)CC2)CCCC1)c1cc2ccccc2s1 [Example 82, Benzo[b]thiophene-2-carboxylic acid [1-(2-phenyl-1(R)-{[1-(tetrahydro-thiopyran-4-ylmethyl)-piperidin-4-ylmethyl]-carbamoyl}-ethylcarbamoyl)cyclopentyl]-amide] the Ki was 0.1 nM.

With O=C(NC1(C(=O)N[C@H](Cc2ccccc2)C(=O)NCCC2CCN(C[C@@H]3CCCN3)CC2)CCCC1)c1ccc2cc(Br)ccc2c1 [Example 84, 6-Bromo-naphthalene-2-carboxylic acid (1-{2-phenyl-1(R)-[2-(1-pyrrolidin-2(S)-ylmethyl-piperidin-4-yl)ethylcarbamoyl]-ethylcarbamoyl}-cyclopentyl)amide TFA salt] the Ki was 0.316 nM.

With N#CCN1CCC(CCNC(=O)[C@@H](Cc2ccccc2)NC(=O)C2(NC(=O)c3cc4ccccc4s3)CCCC2)CC1 [Example 87, Benzo[b]thiophene-2-carboxylic acid (1-{1(R)-[2-(1-cyanomethyl-piperidin-4-yl)-ethylcarbamoyl]-2-phenyl-ethylcarbamoyl}-cyclopentyl)-amide TFA salt] the Ki was 1.26 nM.

Compound O=C(NC1(C(=O)N[C@H](Cc2ccccc2)C(=O)NCC2CCN(CC3COCOC3)CC2)CCCC1)c1cc2ccccc2s1 [Example 88, Benzo[b]thiophene-2-carboxylic acid (1-{1(R)-[(1-[1,3]dioxan-5-ylmethyl-piperidin-4-ylmethyl)carbamoyl]-2-phenyl-ethylcarbamoyl}-cyclopentyl)-amide TFA salt] has a Ki of 0.794 nM.

O=C(NC1(C(=O)N[C@H](Cc2ccccc2)C(=O)NCC2CCN(CC3COCOC3)CC2)CCCC1)c1ccc2cc(Br)ccc2c1 [Example 89, 6-Bromo-naphthalene-2-carboxylic acid (1-{1(R)-[(1-[1,3]dioxan-5-ylmethyl-piperidin-4-ylmethyl)-carbamoyl]-2-phenyl-ethylcarbamoyl}-cyclopentyl)-amide] gave a Ki of 0.126 nM.

O=C(NC1(C(=O)N[C@H](Cc2ccccc2)C(=O)NCC2CCN(CC3COCOC3)CC2)CCCC1)c1cc2cc(Cl)ccc2o1 [Example 91, 5-Chloro-benzofuran-2-carboxylic acid (1-{1(R)-[(1-[1,3]dioxan-5-ylmethyl-piperidin-4-ylmethyl)-carbamoyl]-2-phenyl-ethylcarbamoyl}-cyclopentyl)-amide] gave a Ki of 1 nM.

O=C(NC1(C(=O)N[C@H](Cc2ccccc2)C(=O)NCC2CCN(C3CCSCC3)CC2)CCCC1)c1cc2cc(Cl)ccc2o1 [Example 93, 5-Chloro-benzofuran-2-carboxylic acid [1-(2-phenyl-1(R)-{[1-(tetrahydro-thiopyran-4-yl)-piperidin-4-ylmethyl]-carbamoyl}-ethylcarbamoyl)cyclopentyl]-amide] gave a Ki of 0.0794 nM.

Work on O=C(NC1(C(=O)N[C@@H](CNCCC2CCN(C(=O)Cc3cccs3)CC2)Cc2ccccc2)CCCC1)c1cc2ccccc2s1 [Example 94, Benzo[b]thiophene-2-carboxylic acid [1-(1(R)benzyl-2-{2-[1-(thiophen-2-yl-acetyl)-piperidin-4-yl]-ethylamino}-ethylcarbamoyl)-cyclopentyl]-amide TFA salt] yielded a Ki of 0.631 nM.

NC1(C(=O)NCCNC(=O)[C@@H](Cc2ccccc2)NC(=O)C2(NC(=O)c3cc4ccccc4s3)CCCC2)CCCCC1 [Example 95] gave a Ki of 1.58 nM.

NC1(C(=O)N2CCC(CNC(=O)[C@@H](Cc3ccccc3)NC(=O)C3(NC(=O)c4cc5ccccc5s4)CCCC3)CC2)CCCCC1 [Example 96, Benzo[b]thiophene-2-carboxylic acid [1-(1(R)-{[1-(1-aminocyclohexanecarbonyl)-piperidin-4-ylmethyl]-carbamoyl}-2-phenyl-ethylcarbamoyl)-cyclopentyl]-amide TFA salt] was tested, and the Ki was 0.1 nM.
